Laboratory results taken from ChEMBL document CHEMBL1201862, “PubChem BioAssay data set” (2004).
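Assay format: 96-well plates, 48-hour exposure. At the GI50, growth is halved.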 The source made the active and inactive calls. No stated cut-off is given here; in the data, active = GI50 up to about 1.1 µM and inactive = higher.

Columns and labels:
Test in all cases: DTP human tumour cell line panel, 48 h
EKVX = test system: EKVX
NCI-H522 = test system: NCI-H522
KM12 = test system: KM12
SNB-19 = test system: SNB-19
OVCAR-5 = test system: OVCAR-5
SF-539 = test system: SF-539
PC-3 = test system: PC-3
SF-268 = test system: SF-268
HL-60 = test system: HL-60
UO-31 = test system: UO-31
SNB-75 = test system: SNB-75
NCI/ADR-RES = test system: NCI/ADR-RES
M14 = test system: M14
DU-145 = test system: DU-145
Malme-3M = test system: Malme-3M
SK-MEL-28 = test system: SK-MEL-28
TK-10 = test system: TK-10
MCF7 = test system: MCF7
HOP-92 = test system: HOP-92
HCC 2998 = test system: HCC 2998
A549 = test system: A549
UACC-62 = test system: UACC-62
OVCAR-8 = test system: OVCAR-8
SK-MEL-2 = test system: SK-MEL-2
ACHN = test system: ACHN
SR = test system: SR
SN12C = test system: SN12C
SW-620 = test system: SW-620
IGROV-1 = test system: IGROV-1
MOLT-4 = test system: MOLT-4
LOX IMVI = test system: LOX IMVI
NCI-H460 = test system: NCI-H460
786-0 = test system: 786-0
U-251 = test system: U-251
OVCAR-4 = test system: OVCAR-4
OVCAR-3 = test system: OVCAR-3
K562 = test system: K562
COLO 205 = test system: COLO 205
T47D = test system: T47D
Hs-578T = test system: Hs-578T
MDA-N = test system: MDA-N
RXF 393 = test system: RXF 393
MDA-MB-231 = test system: MDA-MB-231
CAKI-1 = test system: CAKI-1
SK-OV-3 = test system: SK-OV-3
NCI-H226 = test system: NCI-H226
HOP-62 = test system: HOP-62
HT-29 = test system: HT-29
CCRF-CEM = test system: CCRF-CEM
HCT-116 = test system: HCT-116
NCI-H23 = test system: NCI-H23
SK-MEL-5 = test system: SK-MEL-5
RPMI-8226 = test system: RPMI-8226
MDA-MB-435 = test system: MDA-MB-435
UACC-257 = test system: UACC-257
HCT-15 = test system: HCT-15
SF-295 = test system: SF-295

For `CC1(C)COC(c2cccc(C(O)c3ccc(Cl)cc3)c2)=N1` (stereo not drawn), the GI50 (EKVX) was 35.4 µM (inactive), the GI50 (NCI-H522) was 31.8 µM (inactive) and the GI50 (KM12) was 43.7 µM (inactive). For the same compound, the GI50 (SNB-19) was 32.6 µM (inactive), the GI50 (OVCAR-5) was 17.9 µM (inactive) and the GI50 (SF-539) was 19.4 µM (inactive). The GI50 (PC-3) was 16.6 µM (inactive), the GI50 (SF-268) was 31.1 µM (inactive) and the GI50 (HL-60) was 41 µM (inactive). For the same compound, the GI50 (UO-31) was 17.1 µM (inactive), the GI50 (SNB-75) was 2.94 µM (inactive) and the GI50 (NCI/ADR-RES) was 33.3 µM (inactive). For the same compound, the GI50 (M14) was 19.9 µM (inactive), the GI50 (DU-145) was 58.2 µM (inactive) and the GI50 (Malme-3M) was 25.1 µM (inactive). For the same compound, the GI50 (SK-MEL-28) was 29.2 µM (inactive), the GI50 (TK-10) was 32.6 µM (inactive) and the GI50 (MCF7) was 19.6 µM (inactive). The GI50 (HOP-92) was 24.9 µM (inactive), the GI50 (HCC 2998) was 23.8 µM (inactive) and the GI50 (A549) was > 10 µM (inactive). The GI50 (UACC-62) was 19 µM (inactive), the GI50 (OVCAR-8) was 16.1 µM (inactive) and the GI50 (SK-MEL-2) was 24.2 µM (inactive). For the same compound, the GI50 (ACHN) was 33.7 µM (inactive), the GI50 (SR) was 31.3 µM (inactive) and the GI50 (SN12C) was 26.9 µM (inactive). The GI50 (SW-620) was 28.9 µM (inactive), the GI50 (IGROV-1) was 30.5 µM (inactive) and the GI50 (MOLT-4) was 12.1 µM (inactive). The GI50 (LOX IMVI) was 15 µM (inactive), the GI50 (NCI-H460) was 29.4 µM (inactive) and the GI50 (786-0) was 23.9 µM (inactive). The GI50 (U-251) was 22.6 µM (inactive), the GI50 (OVCAR-4) was 56.8 µM (inactive) and the GI50 (OVCAR-3) was 20.1 µM (inactive). For the same compound, the GI50 (K562) was 23.4 µM (inactive), the GI50 (COLO 205) was 18 µM (inactive) and the GI50 (T47D) was 36.3 µM (inactive). For the same compound, the GI50 (Hs-578T) was 23.4 µM (inactive), the GI50 (MDA-N) was 24.8 µM (inactive) and the GI50 (RXF 393) was 15 µM (inactive). For the same compound, the GI50 (MDA-MB-231) was 29.9 µM (inactive), the GI50 (CAKI-1) was 42.3 µM (inactive) and the GI50 (SK-OV-3) was 26.4 µM (inactive). The GI50 (NCI-H226) was 14.8 µM (inactive), the GI50 (HOP-62) was 30.1 µM (inactive) and the GI50 (HT-29) was 17.7 µM (inactive). For the same compound, the GI50 (CCRF-CEM) was 19 µM (inactive), the GI50 (HCT-116) was 18.1 µM (inactive) and the GI50 (NCI-H23) was 23.9 µM (inactive). The GI50 (SK-MEL-5) was 14.4 µM (inactive), the GI50 (RPMI-8226) was 27.2 µM (inactive) and the GI50 (MDA-MB-435) was 24.9 µM (inactive).

In the case of `Nc1ccc(C(=O)O)cc1` [AMINOBENZOIC ACID], the GI50 (EKVX) is reported as > 100 µM (inactive), the GI50 (NCI-H522) is reported as > 100 µM (inactive) and the GI50 (UACC-257) is reported as > 100 µM (inactive). For the same compound, the GI50 (KM12) was > 100 µM (inactive), the GI50 (SNB-19) was > 100 µM (inactive) and the GI50 (OVCAR-5) was > 100 µM (inactive). For the same compound, the GI50 (SF-539) was > 100 µM (inactive), the GI50 (PC-3) was > 100 µM (inactive) and the GI50 (HCT-15) was 21.1 µM. For the same compound, the GI50 (SF-268) was > 100 µM (inactive), the GI50 (HL-60) was > 100 µM (inactive) and the GI50 (UO-31) was > 100 µM (inactive). For the same compound, the GI50 (SNB-75) was > 100 µM (inactive), the GI50 (NCI/ADR-RES) was > 100 µM (inactive) and the GI50 (M14) was > 100 µM (inactive). The GI50 (DU-145) was > 100 µM (inactive), the GI50 (Malme-3M) was > 100 µM (inactive) and the GI50 (SK-MEL-28) was > 100 µM (inactive). For the same compound, the GI50 (TK-10) was > 100 µM (inactive), the GI50 (MCF7) was > 100 µM (inactive) and the GI50 (HOP-92) was > 100 µM (inactive). The GI50 (HCC 2998) was > 100 µM (inactive), the GI50 (A549) was > 100 µM (inactive) and the GI50 (OVCAR-8) was > 100 µM (inactive). For the same compound, the GI50 (SK-MEL-2) was > 100 µM (inactive), the GI50 (ACHN) was > 100 µM (inactive) and the GI50 (SR) was > 100 µM (inactive). For the same compound, the GI50 (SN12C) was 28.7 µM (inactive), the GI50 (SW-620) was > 100 µM (inactive) and the GI50 (IGROV-1) was > 100 µM (inactive). For the same compound, the GI50 (MOLT-4) was > 100 µM (inactive), the GI50 (LOX IMVI) was > 100 µM (inactive) and the GI50 (SF-295) was > 100 µM (inactive). The GI50 (NCI-H460) was > 100 µM (inactive), the GI50 (786-0) was > 100 µM (inactive) and the GI50 (U-251) was > 100 µM (inactive). The GI50 (OVCAR-4) was > 100 µM (inactive), the GI50 (OVCAR-3) was > 100 µM (inactive) and the GI50 (K562) was > 100 µM (inactive). For the same compound, the GI50 (COLO 205) was > 100 µM (inactive), the GI50 (T47D) was > 100 µM (inactive) and the GI50 (Hs-578T) was > 100 µM (inactive). For the same compound, the GI50 (MDA-N) was > 100 µM (inactive), the GI50 (MDA-MB-231) was 28.1 µM (inactive) and the GI50 (CAKI-1) was > 100 µM (inactive). The GI50 (NCI-H226) was > 100 µM (inactive), the GI50 (HOP-62) was > 100 µM (inactive) and the GI50 (HT-29) was > 100 µM (inactive). The GI50 (CCRF-CEM) was > 100 µM (inactive), the GI50 (HCT-116) was > 100 µM (inactive) and the GI50 (NCI-H23) was > 100 µM (inactive). The GI50 (SK-MEL-5) was > 100 µM (inactive), the GI50 (RPMI-8226) was > 100 µM (inactive) and the GI50 (MDA-MB-435) was > 100 µM (inactive).
